The source of these data is publication PMC6611794, “Development of a high-throughput strategy for discovery of potent analogues of antibiotic lysocin E” (Nature Communications, 2019).

Like-named read-outs stand apart in the source and are kept apart here. Where a SMILES comes first, the peptide text is derived from it. Bridges are numbered along the chain shown (N, C = ends). [ ]: non-standard residue; d: D form. The star is where a group is joined. Hexanoyl(3R-OH,5-Me) = CC(C)C[C@@H](O)CC(=O)*; dNMeF = CN[C@H](Cc1ccccc1)C(=O)O; dOrn = NCCC[C@@H](N)C(=O)O

Assay [1] concerns S. aureus Smith ATCC 13709. The assay is described as follows: Antimicrobial activity assay of bead-derived peptides (one-bead, microscale). Details: key to antimicrobial activity: ++: inhibition; +: partial inhibition; -: no inhibition. Format: cell-based, Staphylococcus aureus. The following applies: 85% of one-bead-derived crude peptide, 40 μL Mueller Hinton Broth with 10% calf serum, 37 °C, 18 h. The protocol: Finally, a microscale antimicrobial assay was developed to evaluate the activity of 1 in solution phase.
Antimicrobial activity assay of bead-derived peptides. To the crude peptides in the 96-well round-bottom plate was added DMSO (1 µL/well). To the solution of peptides in each well was added a suspension of S. aureus Smith ATCC 13709 strain in 10% calf serum containing cation adjusted Müller Hinton Broth [40 µL, 2 ×10^5 colony forming units (CFU) , 21 g/L Müller Hinton Broth (Difco), 5 0 mg/L Ca2+ (adjusted with CaCl2• 2H2O), and 25 mg/L Mg 2+ (adjusted with MgCl 2•6H2O)]. The plate was incubated at 37 °C for 18 h, and the precipitation of the grown cells was examined. […]

The procedure of assay [2]: (§1) Preparation of LUVs consisting of PC/PG/MK-4 or PC/PG/UQ-10. To a solution of egg yolk phosphatidylcholine (9.48 mg, 12.4 µmol) and egg yolk phosphatidylglycerol (9.66 mg, 12.4 µmol) in CHCl3 (0.208 mL) was added a solution of MK-4 (2) or UQ-10 (3) (0.313 µmol) in CHCl3 (21.8 µL). The solution was concentrated, and dried under vacuum to for m a lipid thin film. The thin film was hydrated and suspended in carboxyfluorescein-containing buffer solution (0.500 mL, 5 mM HEPES, 20 mM carboxyfluorescein , pH 7.5) by vortexing and sonication. After five-times freeze-thaw cycles, the lipid suspension was extruded 19 times through a polycarbonate filter with 0.40 µm of pore siz e in the diameter.
(§2) The external carboxyfluorescein -containing buffer was replaced with a carboxyfluorescein -free buffer solution (20 mM HEPES, 1 mM EDTA, pH 7.5) through size exclusion chromatography using disposable PD -10 column. Concentration of egg yolk phosphatidylcholine was determined by using Phospholipid C -Test Wako.
(§3) The final concentration of egg yolk phosphatidylcholine was adjusted to 4.0 µM with the carboxyfluorescein -free buffer solution, and the solution was used for membrane disruption ass ay.
(§4) Membrane disruption assay. […]
(§5) to various concentrations as 5-fold serial dilutions. The solution of peptides (2 µL/well) and the carboxyfluorescein-encapsulated LUV suspension (200 µL/well) were mixed in black polystyrene flat-bottom 96-well plates. The final concentration of peptides ranged from 2970 nM to 0.950 nM. The plates were vortexed at room temperature for 30 min, and then fluorescence of carboxyfluorescein (Ex. 490 nm/Em. 517 nm) of each well was measured at room temperature on Gemini EM microplate reader. Trion X-100/H2O (5/95, 2 µL), MeOH/H2O (4/6, 2 µL), and the LUV suspension were mixed in each plate to determine 100% lysis. MeOH/H2O (4/6, 2 µL) and the LUV suspension were mixed in each plate to determine 0% lysis.
(§6) The membrane disruption activities of tested peptides (I) were normalized against 100% lysis by Triton X -100 […]
(§7) (Imax) and 0% lysis by MeOH/H2O (4/6) (I0) as following, where Ix is the fluorescence intensity (Supplementary Equation 2).
(§8) I = 100 × (Ix – I0) / (Imax – I0) (2)
(§9) The membrane-disrupting activities were evaluated as half-maximal response (EC50, nM) values by means of three replicates. Sigmoidal curve fittings were performed on R2 with drc package (Supplementary Figs S7–S9).3 Two-parameter logistic model was applied for the fitting.

A short description of assay [3]: Liposomal membrane disruption assay (carboxyfluorescein LUVs). Format: biochemical. As for the experimental part:
as §1, §2, §3
as §5, with “Membrane disruption assay. Peptides 1, A1–A22, B1–B5, and C1–C5 were diluted with MeOH/H2O (4/6) to various” for “to various”
as §6, §7, §8, §9

Test in assay [4]: as above
Format: biochemical. As for the experimental part:
Preparation of LUVs consisting of PC/PG. Carboxyfluorescein-encapsulated large unilamellar vesicles (LUVs) were prepared according to the thin-film hydration method, followed by extrusion through Nuclepore polycarbonate filters (GE Healthcare) mounted in the mini-extruder apparatus (Avanti Polar Lipids). A solution of egg yolk phosphatidylcholine (9.60 mg, 12.5 µmol) and egg yolk phosphatidylglycerol (9.78 mg, 12.5 µmol) in CHCl3 (0.505 mL) was concentrated, and dried under vacuum to form a lipid thin film. The thin film was hydrated and suspended in carboxyfluorescein-containing buffer solution [0.500 mL, 5 mM 4-(2-hydroxyethyl)-1-piperazineethanesulfonic acid (HEPES), 20 mM carboxyfluorescein, pH 7.5] by vortexing and sonication. After five -times freeze-thaw cycles, the lipid suspension was extruded 19 times through a polycarbonate filter with 0.40 µm of pore size in the diameter. The external carboxyfluorescein -containing buffer was replaced w ith a carboxyfluorescein -free buffer solution [20 mM HEPES, 1 mM ethylenediaminetetraacetic acid (EDTA), pH 7.5] through size exclusion chromatography using disposable PD-10 column (GE Healthcare). Concentration of egg yolk phosphatidylcholine was determined by using Phospholipid C-Test Wako (Fujifilm Wako Pure Chemical). The final concentration of egg yolk phosphatidylcholine was adjusted to 4.0 µM with the carboxyfluorescein-free buffer solution, and the solution was used for membrane disruption assay. […]
as §4, §5, §6, §7, §8, §9
This is another data set of the same source.

Where [5] appears, read: read-out: EC50 PC/PG/2 1st, PC/PG/2 LUVs, 1st experiment.
Setting [6] is: read-out: EC50 PC/PG/2 2nd, PC/PG/2 LUVs, 2nd experiment.
[7] abbreviates: read-out: EC50 PC/PG/2 3rd, PC/PG/2 LUVs, 3rd experiment.
[8] abbreviates: read-out: EC50 PC/PG/2, 30 min, room temperature, mean ± SD of three independent experiments.
Where [9] appears, read: 30 min, room temperature, mean ± SD of three independent experiments, read-out: EC50 PC/PG/3.
The mark [10] stands for this setting: PC/PG/3 LUVs, 1st experiment, read-out: EC50 PC/PG/3 1st.
[11] abbreviates: PC/PG/3 LUVs, 2nd experiment, read-out: EC50 PC/PG/3 2nd.
[12] abbreviates: PC/PG/3 LUVs, 3rd experiment, read-out: EC50 PC/PG/3 3rd.
The mark [13] stands for this setting: 30 min, room temperature, mean ± SD of three independent experiments, read-out: EC50 PC/PG.
Setting [14] is: PC/PG LUVs, 1st experiment, read-out: EC50 PC/PG 1st.
[15] abbreviates: PC/PG LUVs, 2nd experiment, read-out: EC50 PC/PG 2nd.
Where [16] appears, read: PC/PG LUVs, 3rd experiment, read-out: EC50 PC/PG 3rd.

For `CC[C@H](C)[C@@H]1NC(=O)[C@@H](Cc2c[nH]c3ccccc23)NC(=O)[C@@H](C(C)C)NC(=O)[C@H](CCC(=O)O)NC(=O)[C@@H](CCCNC(=N)N)NC(=O)[C@H](CC(C)C)NC(=O)[C@@H](Cc2ccccc2)N(C)C(=O)CNC(=O)[C@H](CCCCN)NC(=O)[C@@H](CCCNC(=N)N)NC(=O)[C@@H](NC(=O)C[C@H](O)CC(C)C)[C@@H](C)OC(=O)[C@H]([C@@H](C)O)NC1=O` [Peptide A3] ({Hexanoyl(3R-OH,5-Me)}-T[dR]KG[dNMeF]L[dR]E[dV][dW]IT; ester 1-C), the antimicrobial activity result in assay [1] (listed as KLVI) is “++ and +”. Besides, the EC50 is 7.68 nM in assay [2] (setting [5]); 14.6 nM in assay [2] (setting [6]); 9.8 nM in assay [2] (setting [7]); 10.7 ± 3.5 nM in assay [2] (setting [8]); 103 ± 85 nM in assay [3] (setting [9]); 47.4 nM in assay [3] (setting [10]). In addition, the EC50 worked out at 201 nM in assay [3] (setting [11]); 60.9 nM in assay [3] (setting [12]); 822 ± 234 nM in assay [4] (setting [13]); 1010 nM in assay [4] (setting [14]); 900 nM in assay [4] (setting [15]); 559 nM in assay [4] (setting [16]).
On to `CC[C@H](C)[C@@H]1NC(=O)[C@@H](Cc2c[nH]c3ccccc23)NC(=O)[C@@H](CCCN)NC(=O)[C@H](CCC(=O)O)NC(=O)[C@@H](CCCNC(=N)N)NC(=O)[C@H](CC(C)C)NC(=O)[C@@H](Cc2ccccc2)N(C)C(=O)CNC(=O)[C@H](CC(N)=O)NC(=O)[C@@H](CCCNC(=N)N)NC(=O)[C@@H](NC(=O)C[C@H](O)CC(C)C)[C@@H](C)OC(=O)[C@H]([C@@H](C)O)NC1=O` [Peptide A14] ({Hexanoyl(3R-OH,5-Me)}-T[dR]NG[dNMeF]L[dR]E[dOrn][dW]IT; ester 1-C), for which, in assay [1], the antimicrobial activity result is given as “+”. In addition, in assay [2], the “selectivity index (EC50 against PC/PG/3 divided by EC50 against PC/PG/2)” value was more than 19.7. The EC50 in assay [2] (setting [5]) was 118 nM; in assay [2] (setting [6]) it was 79.1 nM; in assay [2] (setting [7]) it was 31.9 nM; in assay [2] (setting [8]), 76.3 ± 43.1 nM; in assay [3] (setting [10]), 999 nM; in assay [3] (setting [11]), more than 1500 nM. For the same compound, the EC50 in assay [3] (setting [12]) was 867 nM; in assay [4] (setting [13]), more than 1500 nM; in assay [4] (setting [14]), more than 1500 nM; in assay [4] (setting [15]) it was more than 1500 nM; in assay [4] (setting [16]), more than 1500 nM.
As for `CC[C@H](C)[C@@H]1NC(=O)[C@@H](Cc2c[nH]c3ccccc23)NC(=O)[C@@H](CCCN)NC(=O)[C@H](CCC(=O)O)NC(=O)[C@@H](CCCNC(=N)N)NC(=O)[C@H](CC(C)C)NC(=O)[C@@H](Cc2ccccc2)N(C)C(=O)CNC(=O)[C@H](Cc2ccc(O)cc2)NC(=O)[C@@H](CCCNC(=N)N)NC(=O)[C@@H](NC(=O)C[C@H](O)CC(C)C)[C@@H](C)OC(=O)[C@H]([C@@H](C)O)NC1=O` [Peptide A7] ({Hexanoyl(3R-OH,5-Me)}-T[dR]YG[dNMeF]L[dR]E[dOrn][dW]IT; ester 1-C), the antimicrobial activity entry in assay [1] (listed as YLOI) was “+ and ++”. For the same compound, the “selectivity index (EC50 against PC/PG/3 divided by EC50 against PC/PG/2)” value in assay [2] is reported as 19.7. For the same compound, the EC50 in assay [2] (setting [5]) was found to be 24.6 nM; in assay [2] (setting [6]) it was 27.8 nM; in assay [2] (setting [7]), 14.9 nM; in assay [2] (setting [8]) it was 22.4 ± 6.7 nM; in assay [3] (setting [9]), 441 ± 136 nM; in assay [3] (setting [10]), 334 nM. Also, the EC50 in assay [3] (setting [11]) was found to be 595 nM; in assay [3] (setting [12]), 395 nM; in assay [4] (setting [13]) it was 1120 ± 200 nM; in assay [4] (setting [14]) it was 1320 nM; in assay [4] (setting [15]), 1120 nM; in assay [4] (setting [16]), 923 nM.
Turning to `CC(C)C[C@@H](O)CC(=O)N[C@@H]1C(=O)N[C@H](CCCNC(=N)N)C(=O)N[C@@H](C)C(=O)NCC(=O)N(C)[C@H](Cc2ccccc2)C(=O)N[C@@H](CC(C)C)C(=O)N[C@H](CCCNC(=N)N)C(=O)N[C@@H](CCC(=O)O)C(=O)N[C@H](Cc2ccc(O)cc2)C(=O)N[C@H](Cc2c[nH]c3ccccc23)C(=O)N[C@@H](Cc2ccc(O)cc2)C(=O)N[C@@H]([C@@H](C)O)C(=O)O[C@@H]1C` [Peptide A15] ({Hexanoyl(3R-OH,5-Me)}-T[dR]AG[dNMeF]L[dR]E[dY][dW]YT; ester 1-C), the antimicrobial activity entry in assay [1] was “+”. Moreover, the EC50 in assay [2] (setting [5]) came out at 57.6 nM; in assay [2] (setting [6]), 39.6 nM; in assay [2] (setting [7]), 9 nM; in assay [2] (setting [8]) it was 35.4 ± 24.6 nM; in assay [3] (setting [9]), 268 ± 102 nM; in assay [3] (setting [10]), 231 nM. Besides, the EC50 worked out at 383 nM in assay [3] (setting [11]); 189 nM in assay [3] (setting [12]); 1010 ± 210 nM in assay [4] (setting [13]); 1260 nM in assay [4] (setting [14]); 889 nM in assay [4] (setting [15]); 895 nM in assay [4] (setting [16]).
On to `CC[C@H](C)[C@@H]1NC(=O)[C@@H](Cc2c[nH]c3ccccc23)NC(=O)[C@@H](C(C)C)NC(=O)[C@H](CCC(=O)O)NC(=O)[C@@H](CCCNC(=N)N)NC(=O)[C@H](CC(C)C)NC(=O)[C@@H](Cc2ccccc2)N(C)C(=O)CNC(=O)[C@H](C)NC(=O)[C@@H](CCCNC(=N)N)NC(=O)[C@@H](NC(=O)C[C@H](O)CC(C)C)[C@@H](C)OC(=O)[C@H]([C@@H](C)O)NC1=O` [Peptide A2] ({Hexanoyl(3R-OH,5-Me)}-T[dR]AG[dNMeF]L[dR]E[dV][dW]IT; ester 1-C), for which the antimicrobial activity entry in assay [1] was “++”. Further, the EC50 in assay [2] (setting [5]) is 31.1 nM; in assay [2] (setting [6]), 18.3 nM; in assay [2] (setting [7]), 4.6 nM; in assay [2] (setting [8]) it was 18 ± 13.3 nM; in assay [3] (setting [10]), 89.7 nM; in assay [3] (setting [11]) it was 133 nM. For the same compound, the EC50 in assay [3] (setting [12]) was found to be 57.5 nM; in assay [4] (setting [13]), 714 ± 188 nM; in assay [4] (setting [14]) it was 917 nM; in assay [4] (setting [15]) it was 680 nM; in assay [4] (setting [16]), 545 nM.
